Measured values: patent US11660326B2, “Bacterial-binding peptides for treatment of infectious diseases and related inflammatory processes” (priority 2018, dated 2023)

B1: rshCD6: recombinant soluble form of human CD6, SEQ ID NO.: 10 (protein)
chain: DQLNTSSAESELWEPGERLPVRLTNGSSSCSGTVEVRLEASWEPACGALWDSRAAEAVCRALGCGGAEAASQLAPPTPELPPPPAAGNTSVAANATLAGAPALLCSGAEWRLCEVVEHACRSDGRRARVTCAENRALRLVDGGGACAGRVEMLEHGEWGSVCDDTWDLEDAHVVCRQLGCGWAVQALPGLHFTPGRGPIHRDQVNCSGAEAYLWDCPGLPGQHYCGHKEDAGAVCSEHQSWRLTGGADRCEGQVEVHFRGVWNTVCDSEWYPSEAKVLCQSLGCGTAVERPKGLPHSLSGRMYYSCNGEELTLSNCSWRFNNSNLCSQSLAARVLCSASRSLHNLSTPEVPASVQTVTIESSVTVKIENKESR
modifications: rshCD6

Experiments:
[1] = Solid phase binding assay (ELISA) of biotin-labeled peptides to immobilized LPS; design: species or system E. coli; conditions: biotin-labeled peptide 5-20 μg/mL; LPS 5 μg/mL coated
Experimental: (§1) FIG. 3. Binding of biotin-labeled CD6-derived peptides to immobilized PAMPs from Gram- and Gram+ origin. Increasing concentrations (5-20 μg/mL) of biotin-labeled CD6- (PD1, PD2, PD3 and cons), DMBT1- (pbs1), and CD5- (PD1) derived peptides were added to 96-well ELISA plates sensitized with E. coli 0111:B4 LPS (A) or S. aureus LTA (B) (5 μg/mL each in PBS). Following overnight incubation at 4° C. bound peptides or proteins were developed by addition of horseradish peroxidase (HRP)-labeled streptavidin and 3,3′,5,5′-tetramethylbenzidine (TMB) substrate and further readings at OD 405-620 nm. Results are expressed as mean±SD of duplicates from one representative experiment of three performed. Statistical analysis was performed by two-way ANOVA (*,P<0.05; **, P<0.01; ***, P<0.001).
(§2) Solid Phase Binding Assays. 96-well microtiter plates (Nunc, Roskilde, Denmark) were coated overnight at 4° C. with 5 μg/mL of purified LPS (E. coli 0111:B4, Sigma L2630) or LTA (S. aureus, Sigma L2515) in PBS, and then incubated for 2 h at room temperature in blocking solution (20 mM Tris-HCl pH 7.4 plus 0.05% Tween 20 and 1% BSA). Biotin-labeled peptides/proteins (2.5-20 μg/mL) were added and incubated overnight at 4° C. in blocking solution. After extensive washing, bound peptides/proteins were detected by the addition of horseradish peroxidase (HRP)-labeled streptavidin (1:5,000 dilution; DAKO) for 1 h at room temperature. Color was developed by adding 3,3′,5,5′-tetramethylbenzidine (TMB) liquid substrate (Sigma), and optical density read at 405-620 nm.

[2] = Solid phase binding assay (ELISA) of biotin-labeled peptides to immobilized LTA; design: species or system S. aureus; conditions: biotin-labeled peptide 5-20 μg/mL; LTA 5 μg/mL coated
Experimental: as §1, §2

[3] = Dynamic light scattering (DLS), hydrodynamic size of peptides in solution; assay type: physicochemical; conditions: 10 μg/mL in PBS, 25° C.
Experimental: FIG. 5. Analysis of the hydrodynamic size of CD6-derived peptides in solution. The dynamic light scattering (DLS) analysis of the hydrodynamic diameter of CD6 (PD1, PD2, PD3, and Pcons) and DMBT-1/SAG (pbs1) derived peptides (10 μg/mL) in PBS is shown. The y axis represents the relative intensity of the scattered light; the x axis denotes the hydrodynamic diameter of the particles present in the solution. One representative experiment of four performed is shown (left). The numeric values obtained for each peptide are also shown (right).
The hydrodynamic diameters of peptides (10 μg/mL in PBS) were measured at 25° C. in a Zetasizer Nano S from Malvern Instruments (Worcestershire, UK) equipped with a 633 nm HeNe laser, as described (Saenz A, et al., 2010, Fluidizing effects of C-reactive protein on lung surfactant membranes: protective role of surfactant protein A, FASEB J 24:3662-73). Four scans were recorded for each sample, and samples were analyzed in triplicate.

[4] = system: mouse splenocytes exposed to LPS; test: LPS-induced cytokine release by mouse splenocytes; assay type: cell-based, C57BL/6 mice; conditions: LPS 0.5 μg/mL, 48 h, peptide 0.5, 5 and 20 μg/mL
Experimental: FIG. 6. Effect of CD6-derived peptides on in vitro LIPS-induced cytokine release by mouse splenocytes. Total spleen cell suspensions (2×10^5) from C57BL/6 mice (n=7) were stimulated in triplicate for 48 h with LPS (0.5 μg/mL), in the presence or absence of increasing concentrations (0.5, 5, and 20 μg/mL) of CD6-derived peptides (PD1, PD2, PD3, and Pcons). Cytokine levels in culture supernatants were determined by ELISA and results expressed in pg/mL as mean±SD of triplicates. Viability was >75% at 48 h in all experimental conditions. Statistical analysis was performed using a 2-tailed Mann-Whitney test, with confidence intervals of 95% (*, P<0.05; **, P<0.01; ***, P<0.001).
Spleens from 6-8 week old C57BL/6 mice (Charles River) were disaggregated by filtering through a cell strainer and, after erythrocyte lysis, cells were resuspended in RPMI 1640 with L-glutamine (Lonza) plus 10% fetal calf serum (BioWest), 100 U/mL penicillin, 100 μg/mL streptomycin and 50 μM 2-(3 Mercaptoethanol (Merck). Cells (2×10^5) were stimulated for 48 h (at 37° C. in a humidified atmosphere with 5% CO2) in U-bottomed 96-well plates (Biofil) containing LPS (0.5 μg/mL; E. coli O111:B4), in the presence or absence of increasing peptides (0.5-20 μg/mL). Culture supernatants were harvested and mouse cytokines measured by ELISA following manufacturer's instructions (BD Biosciences OptEIA sets).

[5] = system: mice undergoing CLP-induced septic shock; test: Mouse survival following CLP-induced septic shock; assay type: in vivo, C57BL/6J mice; conditions: single 6 mg/kg i.v. at +1 h post CLP; FIG. 7
Experimental: FIG. 7. Comparative therapeutic effects of i.v. infused CD6-derived peptides on mouse survival following Cecal Ligation and Puncture (CLP)-induced sepsis. (A, B) C57BL/6J mice were i.v. infused with saline (n=25) or single 6 mg/kg doses of unlabeled CD6- (PD1, n=8; PD2, n=16; PD3, n=15; Pcons, n=12) or DMBT1 (pbs1, n=13) derived peptides at +1 h post CLP induction. A sham group (n=3) was included. In all cases average percent survival was analyzed over time for each group and compared with the saline-treated group using the long-rank t-test (*, P<0.05; **, P<0.01; ***, P<0.001).
FIG. 8. Dose-, time- and via-dependent effects of CD6.PD3 infusion on mouse survival following CLP-induced sepsis. (A) C57BL/6 mice were i.v. infused at +1 h post CLP with saline (n=26) or single increasing doses (3 mg/kg, n=13; 6 mg/kg, n=15; and 12 mg/kg, n=8) of CD6.PD3 peptide. (B) C57BL/6 mice were i.v. infused with saline (n=4) or 6 mg/kg CD6.PD3 at different times post CLP (+1 h, n=5; +3 h, n=5; +6 h, n=6). (C) C57BL/6J mice were i.v. (n=11) or i.p. (n=9) infused with 6 mg/kg CD6.PD3 peptide or saline (n=9) at +1 h post CLP. In all cases, average percent of survival was analyzed over time and compared with the saline-treated group using a log-rank t-test (n.s., not significant; *, P<0.05. **, P<0.01; ***, P<0.001).
FIG. 10. Additive effects of combined administration of CD6.PD3 plus Imipenem/Cilastatin on mouse survival following CLP-induced sepsis. C57BL/6J mice were therapeutically infused at +1 h post CLP with saline (n=36), CD6.PD3 (6 mg/kg i.v.; n=25), Imipenem/Cilastatin (I/C, 50 mg/kg/12 h i.p.; n=9) or a combination of the two later (I/C+PD3, n=11). In all cases average percent survival was analyzed over time for each group and compared to the I/C plus CD6.PD3 group using the long-rank t-test (**, P<0.02; ***, P<0.002).
Animal procedures were approved by the Animal Experimentation Ethical Committee, University of Barcelona. High-grade mortality (≥90% mortality within the first 48-72 h) CLP-induced septic shock was induced in 8-10 week old C57BL/6J male mice (20-25 g; Charles River) as previously reported (Martinez-Florensa M, et al., 2017, Protective Effects of Human and Mouse Soluble Scavenger-Like CD6 Lymphocyte Receptor in a Lethal Model of Polymicrobial Sepsis, Antimicrob Agents Chemother 61:e01391-16).
Survival assays were analyzed by a Log-Rank χ^2 test using GraphPad Prism software. The significance of differences between experimental groups was determined by 2-tailed paired T test with 95% of confidence intervals (CI). P values were considered significant when P<0.05. Statistical analysis (mean±SEM) was performed using a 2-tailed Mann-Whitney test, with 95% of Cl.

[6] = depending on the G− strain used; read-out: Kd of the LPS/Polymixin B interaction; cited from earlier work
[7] = Endotoxin adsorption on peptide/protein-coated Eupergit beads (LAL assay); conditions: 50 UI/mL LPS, 0-150 min, vs HSA- and rshCD5-coated controls
Experimental: FIG. 11. Endotoxin adsorption assays on immobilized CD6-derived peptides and proteins. Eupergit® beads coated with different CD6-derived peptides (PD2, PD3, and Pcons) (A) or proteins (rshCD5 and rshCD6) (B) were incubated for different periods of time (0, 30, 90 and 150 min) with a 50 UI/mL endotoxin solution. Limulus amoebocyte lysate activating activity (LAL activity) of supernatants was then monitored along time and the OD 405-620 nm represented. Beads coated with Human Serum Albumin (HSA) were used as negative controls. Shown are triplicates of a representative experiment from two independent performed. Statistical analysis was done by using the 2-tailed paired T test with 95% confidence interval (***, P<0.001).
Proteins or peptides (2.5 mg each) were immobilized via NH2 groups on macroporous acrylic EUPERGIT© beads (0.2 g; Röhm-Pharma GmbH, Germany) following a previously described protocol (Zimmermann M, et al., 1999, Endotoxin adsorbent based on immobilized human serum albumin. Clin Chem Lab Med 37:373-379). Peptide or protein-coated Eupergit® beads are obtained by incubation with stirring of the polymeric beads at room temperature with a solution of the peptides of the invention in sodium phosphate buffer 100 mM pH 8 for 24 hours. After incubation, the beads were washed 3 times with 3 M sodium chloride pH 7.0, 30 mM sodium phosphate buffer pH 4.0 and 30 mM sodium phosphate buffer pH 8.0. Finally, 154 mM sodium chloride solution pH 7.0 was added to the peptide or protein-coated beads.
LPS detection was performed by using the turbidimetric-kinetic Limulus Amebocyte Lysate (LAL) kit-QCL (50-650U, Lonza) following manufacturer's instructions. Protein/peptide-coated EUPERGIT® beads were incubated 1:1 (v:v) with the provided endotoxin solution (50 UI/mL) for different periods of time (0-150 min) at room temperature following manufacturer's instructions.

[8] = cited from earlier work
[9] = system: pro-inflammatory cytokine (IL-1β, IL-6, TNF-α) release; conditions: cited from earlier work
[10] = system: mouse models of septic shock; conditions: cited from earlier work

Molecule | binding to immobilized LPS (ELISA) [1] | binding to immobilized LTA (ELISA) [2] | hydrodynamic size, first (or single) peak [3] | hydrodynamic size, second peak [3] | survival [5] | other results
GQLEVYLKDGW (CD5.PD1) | no significant binding | no significant binding |  |  |  | 
GRVEVLFRGSW (CD6 Pcon) [CD6.cons, reference compound] | dose-dependent binding | dose-dependent binding | 1636±6 nm | 5493±7 nm | 25% | IL-1β release [4]: dose-dependent inhibitory effects; IL-6 release [4]: dose-dependent inhibitory effects; IL-10 release [4]: not
GRVEVLYRGSW (DMBT-1.pbs1) [DMBT1.pbs1, reference compound] | dose-dependent binding | dose-dependent binding | 169±5 nm | 617±4 nm | 23.07% | 
Polymixin B |  |  |  |  |  | Kd [6]: 100 to 900 nM
B1 |  |  |  |  |  | endotoxin levels (LAL assay) [7]: reduced endotoxin levels; Kd affinities for bacterial PAMPs (LPS, LTA or PGN) [8]: in the nM range; pro-inflammatory cytokine (IL-1β, IL-6, TNF-α) release triggered by LPS or LTA/PGN [9]: down-modulates; lethal effects caused by LPS-induced septic shock ([10]; i.p. administration, mice (EP 2143436)): counteracts the lethal effects; serum levels of pro-inflammatory cytokines (IL-1β, IL-6 and TNF-α) ([10]; prophylactic infusion): significantly reduces; mortality ([10]; prophylactic infusion, endotoxin, whole bacteria and peritonitis models): significantly reduces mortality
